Test results taken from publication PMC5218480 (PLoS ONE, 2017).

System: MV-4-11 cells
Experiment: Gene expression microarray analysis (Affymetrix PrimeView) and GSEA
Format: cell-based, human
Set-up: RFU PODN (11730768_x_at) / Fold change /veh PODN (11730768_x_at) / RFU LINC00158 (11744669_a_at) / Fold change /veh LINC00158 (11744669_a_at) / RFU DUSP10 (11751237_a_at) / Fold change /veh DUSP10 (11751237_a_at) / RFU ID3 (11757404_x_at) / Fold change /veh ID3 (11757404_x_at) / RFU PLEKHG5 (11737974_s_at) / Fold change /veh PLEKHG5 (11737974_s_at) / RFU LRRC4B (11730491_at) / Fold change /veh LRRC4B (11730491_at) / RFU GIMAP4 (11747438_a_at) / Fold change /veh GIMAP4 (11747438_a_at) / RFU KRT8 (11758183_x_at) / Fold change /veh KRT8 (11758183_x_at) / RFU CNN1 (11734310_a_at) / Fold change /veh CNN1 (11734310_a_at) / RFU VPS37D (11726825_at) / Fold change /veh VPS37D (11726825_at) / RFU C10orf10 (11716522_x_at) / Fold change /veh C10orf10 (11716522_x_at) / RFU KIR2DL2 /// KIR2DL4 /// KIR2DL5A /// KIR2DL5B /// KIR2DS1 /// KIR2DS2 /// KIR2DS3 /// KIR2DS4 /// KIR3DL3 /// KIR3DL3 /// KIR3DS1 (11738374_at) / Fold change /veh KIR2DL2 /// KIR2DL4 /// KIR2DL5A /// KIR2DL5B /// KIR2DS1 /// KIR2DS2 /// KIR2DS3 /// KIR2DS4 /// KIR3DL3 /// KIR3DL3 /// KIR3DS1 (11738374_at) / RFU C1QL1 (11718748_at) / Fold change /veh C1QL1 (11718748_at) / RFU TMPRSS4 (11747572_a_at) / Fold change /veh TMPRSS4 (11747572_a_at) / RFU HAMP (11756126_x_at) / Fold change /veh HAMP (11756126_x_at) / RFU RNFT2 (11725882_a_at) / Fold change /veh RNFT2 (11725882_a_at) / RFU NR4A2 (11747474_a_at) / Fold change /veh NR4A2 (11747474_a_at) / RFU ABCC12 (11746883_a_at) / Fold change /veh ABCC12 (11746883_a_at) / RFU TMEM136 (11760407_x_at) / Fold change /veh TMEM136 (11760407_x_at) / RFU CLDN22 /// WWC2 (11732394_at) / Fold change /veh CLDN22 /// WWC2 (11732394_at) / RFU HLA-DPB1 (11760878_x_at) / Fold change /veh HLA-DPB1 (11760878_x_at) / RFU SPINT1 (11716480_a_at) / Fold change /veh SPINT1 (11716480_a_at) / RFU GAP43 (11754022_s_at) / Fold change /veh GAP43 (11754022_s_at) / RFU A4GNT (11735810_at) / Fold change /veh A4GNT (11735810_at) / RFU PRB3 (11715151_x_at) / Fold change /veh PRB3 (11715151_x_at) / RFU TUBB4B (11761932_at) / Fold change /veh TUBB4B (11761932_at) / RFU CAPN14 (11732068_a_at) / Fold change /veh CAPN14 (11732068_a_at) / RFU TMCC2 (11721928_a_at) / Fold change /veh TMCC2 (11721928_a_at) / RFU IRGQ (11745062_a_at) / Fold change /veh IRGQ (11745062_a_at) / RFU FAM174B (11720279_a_at) / Fold change /veh FAM174B (11720279_a_at) / RFU TMPRSS4 (11748680_a_at) / Fold change /veh TMPRSS4 (11748680_a_at) / RFU FAM212B (11763350_a_at) / Fold change /veh FAM212B (11763350_a_at) / RFU PLEKHG5 (11743358_a_at) / Fold change /veh PLEKHG5 (11743358_a_at) / RFU ZSCAN30 (11745921_a_at) / Fold change /veh ZSCAN30 (11745921_a_at) / RFU CMKLR1 (11741424_a_at) / Fold change /veh CMKLR1 (11741424_a_at) / RFU LOC101060620 /// MAPK8IP1 (11723275_at) / Fold change /veh LOC101060620 /// MAPK8IP1 (11723275_at) / RFU SPTSSB (11747773_x_at) / Fold change /veh SPTSSB (11747773_x_at) / RFU PRSS12 (11739890_at) / Fold change /veh PRSS12 (11739890_at) / RFU BIN1 (11741810_x_at) / Fold change /veh BIN1 (11741810_x_at) / RFU WNT11 (11732464_a_at) / Fold change /veh WNT11 (11732464_a_at) / RFU C10orf10 (11716521_a_at) / Fold change /veh C10orf10 (11716521_a_at) / RFU C5orf56 (11738089_at) / Fold change /veh C5orf56 (11738089_at) / RFU CYB561 (11721691_x_at) / Fold change /veh CYB561 (11721691_x_at) / RFU ANKRD19P (11752326_a_at) / Fold change /veh ANKRD19P (11752326_a_at) / RFU OR2T12 /// OR2T33 /// OR2T8 (11738714_s_at) / Fold change /veh OR2T12 /// OR2T33 /// OR2T8 (11738714_s_at) / RFU VCAN (11748164_a_at) / Fold change /veh VCAN (11748164_a_at) / RFU JSRP1 (11732532_at) / Fold change /veh JSRP1 (11732532_at) / RFU KRTAP10-11 (11738290_x_at) / Fold change /veh KRTAP10-11 (11738290_x_at) / RFU MYO3A (11730013_a_at) / Fold change /veh MYO3A (11730013_a_at) / RFU EBF3 (11725865_a_at) / Fold change /veh EBF3 (11725865_a_at) / RFU CAMK2N1 (11719241_x_at) / Fold change /veh CAMK2N1 (11719241_x_at) / RFU C5orf56 (11738088_a_at) / Fold change /veh C5orf56 (11738088_a_at) / RFU OLFML3 (11715873_a_at) / Fold change /veh OLFML3 (11715873_a_at) / RFU LOC100653217 /// NTM (11731650_a_at) / Fold change /veh LOC100653217 /// NTM (11731650_a_at) / RFU MAPK11 (11762145_a_at) / Fold change /veh MAPK11 (11762145_a_at) / RFU FIZ1 (11724087_x_at) / Fold change /veh FIZ1 (11724087_x_at) / RFU OASL (11726364_x_at) / Fold change /veh OASL (11726364_x_at) / RFU SOX15 (11748057_x_at) / Fold change /veh SOX15 (11748057_x_at) / RFU CD79A (11719716_a_at) / Fold change /veh CD79A (11719716_a_at) / RFU HIST1H1D (11736915_at) / Fold change /veh HIST1H1D (11736915_at) / RFU CASKIN2 (11723855_a_at) / Fold change /veh CASKIN2 (11723855_a_at) / RFU LOC730098 (11760151_x_at) / Fold change /veh LOC730098 (11760151_x_at) / RFU OR4N2 (11742367_at) / Fold change /veh OR4N2 (11742367_at) / RFU PRRT2 (11749266_a_at) / Fold change /veh PRRT2 (11749266_a_at) / RFU SNX32 (11753110_a_at) / Fold change /veh SNX32 (11753110_a_at) / RFU CDHR5 (11726645_a_at) / Fold change /veh CDHR5 (11726645_a_at) / RFU RCAN1 (11760418_a_at) / Fold change /veh RCAN1 (11760418_a_at) / RFU FAM167A (11723789_a_at) / Fold change /veh FAM167A (11723789_a_at) / RFU FAM26E (11764081_at) / Fold change /veh FAM26E (11764081_at) / RFU ISYNA1 (11749810_s_at) / Fold change /veh ISYNA1 (11749810_s_at) / RFU ACY1 (11761880_at) / Fold change /veh ACY1 (11761880_at) / RFU 11764098_at / Fold change /veh 11764098_at / RFU SAMD14 (11745864_x_at) / Fold change /veh SAMD14 (11745864_x_at) / RFU NPB (11741838_a_at) / Fold change /veh NPB (11741838_a_at) / RFU TMPRSS6 (11731388_a_at) / Fold change /veh TMPRSS6 (11731388_a_at) / RFU KRTAP10-2 (11738614_at) / Fold change /veh KRTAP10-2 (11738614_at) / RFU ARHGAP8 /// PRR5-ARHGAP8 (11727945_x_at) / Fold change /veh ARHGAP8 /// PRR5-ARHGAP8 (11727945_x_at) / RFU KRTAP5-7 /// NADSYN1 (11734609_at) / Fold change /veh KRTAP5-7 /// NADSYN1 (11734609_at) / RFU RASL12 (11751679_a_at) / Fold change /veh RASL12 (11751679_a_at) / RFU CDKN2B (11736163_a_at) / Fold change /veh CDKN2B (11736163_a_at) / RFU PRF1 (11729649_at) / Fold change /veh PRF1 (11729649_at) / RFU, ZNF638 /// ZNF638-IT1 / Fold change vs veh, ZNF638 /// ZNF638-IT1 / RFU, PANK3 / Fold change vs veh, PANK3 / RFU, SH3YL1 / Fold change vs veh, SH3YL1 / RFU, ZEB2 / Fold change vs veh, ZEB2 / RFU, NRIP1 / Fold change vs veh, NRIP1 / RFU, PTTG1IP / Fold change vs veh, PTTG1IP / RFU, CAPN2 / Fold change vs veh, CAPN2 / RFU, MED14 / Fold change vs veh, MED14 / RFU, SNORA58 / Fold change vs veh, SNORA58 / RFU, C1orf63 / Fold change vs veh, C1orf63 / RFU, LRRFIP1 / Fold change vs veh, LRRFIP1 / RFU, NDUFAF7 / Fold change vs veh, NDUFAF7 / RFU, SLC12A2 / Fold change vs veh, SLC12A2 / RFU, IBTK / Fold change vs veh, IBTK / RFU, ESF1 / Fold change vs veh, ESF1 / Fold change vs veh, TMEM50B / RFU, TAOK1 / Fold change vs veh, TAOK1 / RFU, ACBD3 / Fold change vs veh, ACBD3 / RFU, TMA16 / Fold change vs veh, TMA16 / RFU, RWDD3 / Fold change vs veh, RWDD3 / RFU, BCAT1 / Fold change vs veh, BCAT1 / RFU, EDEM3 / Fold change vs veh, EDEM3 / RFU, TMEM33 / Fold change vs veh, TMEM33 / RFU, WDR75 / Fold change vs veh, WDR75 / RFU, AHCTF1 / Fold change vs veh, AHCTF1 / RFU, TFRC / Fold change vs veh, TFRC / RFU, ZDHHC17 / Fold change vs veh, ZDHHC17 / RFU, NOM1 / Fold change vs veh, NOM1 / RFU, ARL8B / Fold change vs veh, ARL8B / RFU, ZBTB11 / Fold change vs veh, ZBTB11 / RFU, TAMM41 / Fold change vs veh, TAMM41 / RFU, KIAA1704 /// LOC100996395 / Fold change vs veh, KIAA1704 /// LOC100996395 / RFU, ING1 / Fold change vs veh, ING1 / RFU, TRMT61B / Fold change vs veh, TRMT61B / RFU, FUBP3 / Fold change vs veh, FUBP3 / RFU, TP53 / Fold change vs veh, TP53 / RFU, TNKS2 / Fold change vs veh, TNKS2 / RFU, ZFP14 / Fold change vs veh, ZFP14 / RFU, ACTR2 / Fold change vs veh, ACTR2 / RFU, PPP3R1 / Fold change vs veh, PPP3R1 / RFU, PIK3R1 / Fold change vs veh, PIK3R1 / RFU, HNRNPA1 / Fold change vs veh, HNRNPA1 / RFU, RNF170 / Fold change vs veh, RNF170 / RFU, ZNF28 / Fold change vs veh, ZNF28 / RFU, RNGTT / Fold change vs veh, RNGTT / RFU, OGT / Fold change vs veh, OGT / RFU, BRD1 / Fold change vs veh, BRD1 / RFU, MARS / Fold change vs veh, MARS / RFU, ZNF655 / Fold change vs veh, ZNF655 / RFU, FAHD1 / Fold change vs veh, FAHD1 / RFU, BDP1 / Fold change vs veh, BDP1 / RFU, LRRCC1 / Fold change vs veh, LRRCC1 / RFU, ARID1A / Fold change vs veh, ARID1A / RFU, ZNF146 / Fold change vs veh, ZNF146 / RFU, ZNF330 / Fold change vs veh, ZNF330 / RFU, GPN3 / Fold change vs veh, GPN3 / RFU, C9orf123 / Fold change vs veh, C9orf123 / RFU, N4BP2L2 / Fold change vs veh, N4BP2L2 / RFU, ARFIP1 / Fold change vs veh, ARFIP1 / RFU, FAM179B / Fold change vs veh, FAM179B / RFU, BCL10 / Fold change vs veh, BCL10 / RFU, UHRF1BP1L / Fold change vs veh, UHRF1BP1L / RFU, BET1 / Fold change vs veh, BET1 / RFU, CNOT2 / Fold change vs veh, CNOT2 / RFU, ZNF268 / Fold change vs veh, ZNF268 / Fold change vs veh, ZNF507 / RFU, DGCR2 / Fold change vs veh, DGCR2 / RFU, WDSUB1 / Fold change vs veh, WDSUB1 / Fold change vs veh, HSP90B1 /// MIR3652 / RFU, ADSS / Fold change vs veh, ADSS / RFU, GK / Fold change vs veh, GK / RFU, ZNF148 / Fold change vs veh, ZNF148 / RFU, TAF9 / Fold change vs veh, TAF9 / RFU, SLC1A5 / Fold change vs veh, SLC1A5 / RFU, SLMO2 / Fold change vs veh, SLMO2 / RFU, ABCC4 / Fold change vs veh, ABCC4 / RFU, LOC101060439 /// RAP1B / Fold change vs veh, LOC101060439 /// RAP1B / RFU, RFX7 / Fold change vs veh, RFX7 / RFU, GTPBP10 / Fold change vs veh, GTPBP10 / RFU, CNEP1R1 / Fold change vs veh, CNEP1R1 / RFU, BIVM-ERCC5 /// ERCC5 / Fold change vs veh, BIVM-ERCC5 /// ERCC5 / RFU, ILF3 / Fold change vs veh, ILF3 / RFU 11762660_at / Fold change /veh 11762660_at / RFU VCAN (11757783_s_at) / Fold change /veh VCAN (11757783_s_at) / RFU DDX43 (11728927_at) / Fold change /veh DDX43 (11728927_at) / RFU KRT8 (11758188_x_at) / Fold change /veh KRT8 (11758188_x_at) / RFU NKD1 (11759106_at) / Fold change /veh NKD1 (11759106_at) / RFU SRD5A1 (11742802_a_at) / Fold change /veh SRD5A1 (11742802_a_at) / RFU TPSAB1 /// TPSB2 (11721975_s_at) / Fold change /veh TPSAB1 /// TPSB2 (11721975_s_at) / RFU GSTM3 (11746129_a_at) / Fold change /veh GSTM3 (11746129_a_at) / RFU IL23R (11737362_x_at) / Fold change /veh IL23R (11737362_x_at) / RFU TMEM51 (11727254_a_at) / Fold change /veh TMEM51 (11727254_a_at) / RFU PIWIL2 (11732686_x_at) / Fold change /veh PIWIL2 (11732686_x_at) / RFU ORM1 (11744905_x_at) / Fold change /veh ORM1 (11744905_x_at) / RFU CCDC152 (11743942_at) / Fold change /veh CCDC152 (11743942_at) / RFU ECM1 (11717891_a_at) / Fold change /veh ECM1 (11717891_a_at) / RFU IL23R (11748794_a_at) / Fold change /veh IL23R (11748794_a_at) / RFU TNFAIP8L3 (11732012_x_at) / Fold change /veh TNFAIP8L3 (11732012_x_at) / RFU MBOAT4 (11741988_at) / Fold change /veh MBOAT4 (11741988_at) / RFU 11764193_at / Fold change /veh 11764193_at / RFU TMEM53 (11763286_at) / Fold change /veh TMEM53 (11763286_at) / RFU MAGEB2 (11727129_at) / Fold change /veh MAGEB2 (11727129_at) / RFU TMEM200A (11744735_a_at) / Fold change /veh TMEM200A (11744735_a_at) / RFU CCDC152 (11751479_a_at) / Fold change /veh CCDC152 (11751479_a_at) / RFU FAM211A (11726209_a_at) / Fold change /veh FAM211A (11726209_a_at) / RFU RGS16 (11746705_a_at) / Fold change /veh RGS16 (11746705_a_at) / RFU VCAN (11755009_s_at) / Fold change /veh VCAN (11755009_s_at) / RFU RHOB (11743442_s_at) / Fold change /veh RHOB (11743442_s_at) / RFU RGS16 (11720943_a_at) / Fold change /veh RGS16 (11720943_a_at) / RFU RGS16 (11720944_at) / Fold change /veh RGS16 (11720944_at) / RFU, VPS4B / Fold change vs veh, VPS4B / RFU, CREB1 / Fold change vs veh, CREB1 / RFU, DNAJC13 / Fold change vs veh, DNAJC13 / RFU, GNAQ / Fold change vs veh, GNAQ / RFU, CDK5R1 / Fold change vs veh, CDK5R1 / RFU, ZRANB3 / Fold change vs veh, ZRANB3 / RFU, CUL4A / Fold change vs veh, CUL4A / RFU, CCNY / Fold change vs veh, CCNY / RFU, UFL1 / Fold change vs veh, UFL1 / RFU, COG3 / Fold change vs veh, COG3 / RFU, DIAPH2 / Fold change vs veh, DIAPH2 / RFU, SKA2 / Fold change vs veh, SKA2 / RFU, AFF3 / Fold change vs veh, AFF3 / RFU, LMF1 / Fold change vs veh, LMF1 / RFU, IPO11 / Fold change vs veh, IPO11 / RFU, DFFB / Fold change vs veh, DFFB / RFU, FOXP1 / Fold change vs veh, FOXP1 / RFU, CARD8 / Fold change vs veh, CARD8 / RFU, STRN3 / Fold change vs veh, STRN3 / RFU, ADK / Fold change vs veh, ADK / RFU, RASSF2 / Fold change vs veh, RASSF2 / RFU, WIPF1 / Fold change vs veh, WIPF1 / RFU, LARP1B / Fold change vs veh, LARP1B / RFU, RASA1 / Fold change vs veh, RASA1 / RFU, RB1 / Fold change vs veh, RB1 / RFU, PPFIA1 / Fold change vs veh, PPFIA1 / RFU, MAT2A / Fold change vs veh, MAT2A / RFU, CCT5 / Fold change vs veh, CCT5 / RFU, WDR92 / Fold change vs veh, WDR92 / RFU, CUX1 / Fold change vs veh, CUX1 / RFU, TTC7A / Fold change vs veh, TTC7A / RFU, TMEM135 / Fold change vs veh, TMEM135 / RFU, DEPTOR / Fold change vs veh, DEPTOR / RFU, CPM / Fold change vs veh, CPM / RFU, DNAJB6 / Fold change vs veh, DNAJB6 / RFU, CACNA2D3 / Fold change vs veh, CACNA2D3 / RFU, DTX4 / Fold change vs veh, DTX4 / RFU, TFCP2 / Fold change vs veh, TFCP2 / RFU, GMCL1 /// GMCL1P1 / Fold change vs veh, GMCL1 /// GMCL1P1 / RFU, AEBP2 / Fold change vs veh, AEBP2 / RFU, SNHG1 /// SNORD22 /// SNORD25 /// SNORD26 /// SNORD27 /// SNORD28 /// SNORD29 /// SNORD31 / Fold change vs veh, SNHG1 /// SNORD22 /// SNORD25 /// SNORD26 /// SNORD27 /// SNORD28 /// SNORD29 /// SNORD31 / Fold change (Aza/veh), C12orf56 (ProbeSet 11735607_a_at) / Fold change (ACY-1035/veh), C12orf56 (ProbeSet 11735607_a_at) / Fold change (Aza/veh), FGFR1OP (ProbeSet 11751329_s_at) / Fold change (ACY-1035/veh), FGFR1OP (ProbeSet 11751329_s_at) / Fold change (Aza/veh), VPS36 (ProbeSet 11739960_a_at) / Fold change (ACY-1035/veh), VPS36 (ProbeSet 11739960_a_at) / RFU SYPL1 (11715823_x_at) / Fold change /veh SYPL1 (11715823_x_at) / RFU IGFBP7 (11715501_s_at) / Fold change /veh IGFBP7 (11715501_s_at) / RFU REEP3 (11722064_at) / Fold change /veh REEP3 (11722064_at) / RFU IGLL1 (11728026_x_at) / Fold change /veh IGLL1 (11728026_x_at): dose or concentration left out as unconfirmed
Conditions: ProbeSet 11745789_a_at; LIST D

Nc1ncn([C@@H]2O[C@H](CO)[C@@H](O)[C@H]2O)c(=O)n1 [azacitidine]
RFU, TMEM135: 108.05 RFU
